Series [1] concerns non-proliferating fibroblasts. As to the kind of experiment: Cytotoxicity to non-proliferating fibroblasts (cell number per dish). The format is cell-based. The conditions noted are these: 5 mM, 72 hr. From the text:
Certain aspects of the present invention are described in greater detail in the non-limiting Examples that follow. (See also Murad et al, Arch. Biochem. Biophys. 292:234 (1992)).

Series [2] has as its system Prolyl Hydroxylations in Human Skin Fibroblasts. In words: Hydroxylation of proline residues in type I procollagen (Hyp/Pro). The conditions noted are these: for Hyp/Pro: 72 hr. The format is cell-based. On the procedure: Culture of human skin fibroblasts derived from an apparently normal adult were grown to confluent densities in Dulbecco's modified Eagle's medium supplemented with 10% (v/v) fetal calf serum. Thereafter, the medium was replaced with medium supplemented with 0.5% dialyzed fetal calf serum. […] In some experiments, minoxodil was dissolved in 95% (v/v) ethanol; […]. Cultures treated with ethanol only served as the control.
During the last 6 hr of treatment, cultures were labeled with 50 μCi of L-[2,3-^3 H]proline (35 Ci/mmol) and 50 μCi of L[U-^14 C]lysine ([…]) in 4 ml of lysine-free medium supplemented with 100 μM ascorbic acid. At the end of the incubation period, the medium was removed and mixed with 1 mM each of EDTA, N-ethylmaleimide, and phenylmethylsulfonylfluoride, and the collagenous proteins were precipitated with 30% (NH4)2 SO4. The cell layer was scraped and extracted with 0.5 M acetic acid containing the protease inhibitors as above. The cell extract was neutralized, and the collagenous proteins were precipitated as above. The (NH4)2 SO4 precipitate from the medium and cell layer was separately dissolved in 0.1% SDS/10 mM Tris-HCl (pH 6.8), reduced with dithiothreitol, and analyzed by electrophoresis on 4% SDS-polyacrylamide gels. The bands corresponding to the proαl(I) and proα2(I) chains from the two fractions were pooled and hydrolyzed with 6 M HCl for 24 hr at 110° C. Proline, hydroxyproline, lysine, and hydroxylysine in the hydrolysate were separated by HPLC (Takimitsa et al, J. Dermatol. 16:37 (1989)), and their radioactivity was determined in a Beckman liquid scintillation counter. To isolate type I procollagen the precipitate from the medium and cell layer was separately dissolved in 25 mM Tris-HCl, pH 7.5, containing 2 M urea and 1 mM each of EDTA, N-ethylmaleimide, and phenylmethylsulfonylfluoride, then chromatographed on a DEAE-cellulose column (Freiberger et al, J. Invest. Dermatol. 75:425 (1980)). The procollagen isolated from the two fractions was pooled, hydrolyzed, and analyzed as above.

Another series deals with human skin fibroblasts. As to conditions: background; cited from earlier work.
For a further series, the system named is lysyl hydroxylase. As to the kind of experiment: Lysyl hydroxylase activity in extracts of treated human skin fibroblasts (Example 2, pyridine, triazine and N-alkyl analogs). The format is cell-based. On the procedure:
Cells were treated for 72 hr with minoxidil or its triazine analog at the indicated concentrations. The enzyme activities in extracts of treated cells were measured by tritium release assays (Murad and Pinnell, J. Biol. Chem. 262:11,973 (1987)) and are expressed as a percentage of zero-concentration values. PH, prolyl hydroxylase; LH, lysyl hydroxylase.
Cells were treated for 72 hr with various concentrations of minoxidil or its N-alkyl analogs as indicated. The enzyme activity in extracts of treated cells was measured by tritium release assays (Murad and Pinnell, J. Biol. Chem. 262:11,973 (1987)) and is expressed as a percentage of zero-concentration value. The minoxidil curve is reproduced from FIG. 4.
Cultures of human skin fibroblast (1.5×10^6 cells) were seeded onto 100-mm plates and incubated at 37° in Dulbecco's modified Eagle's medium supplemented with 20% calf serum. After 24 hr, the medium was replaced with medium supplemented with 0.5% heat-inactivated dialyzed calf serum. The incubation was continued for an additional 72 hr in the presence of 0.1-2 μM minoxidil analogs dissolved in 0.12N HCl; the final concentration of HCl was 0.0012N or 0.0024N. Cells treated with HCl only served as control. During the last 3 hr of incubation, cells received […] ascorbic acid to ensure complete hydroxylation of the polypeptide precursors of procollagen (Murad et al, J. Invest. Dermatol. 75:404 (1980)). At the end of the incubation period, cells were harvested by trypsinization and disrupted by sonication in a buffered medium (Murad et al, J. Biol. Chem. 262:11,973 (1987)).
Lysyl hydroxylase activity in extracts of treated cells was measured with an underhydroxylated procollagen substrate (Murad et al, J. Biol. Chem. 262:11,973 (1987)), which was prepared by labeling cultures of human skin fibroblasts with L-[4,5-^3 H]lysine in the presence of an iron chelator α,α'-dipyridyl (Murad and Pinnell, Conn. Tiss. Res. 13:181 (1985)). The amount of tritium released was quantitated as ^3 HO after vacuum distillation . Prolyl hydroxylase activity was similarly measured with an underhydroxylated procollagen substrate containing L-[4-^3 H]proline (Murad and Pinnell, J. Biol. Chem. 262:11973 (1987); Murad and Pinnell, Conn. Tiss. Res. 13:181 (1985)). The enzyme activities are based on a unit of soluble cell protein. The protein content of cell extracts was determined by a dye-binding techniques using Bio-Rad reagents (Bradford, Anal. Biochem. 72:248 (1976)).
Cells were treated for 72 hr with 1 mM minoxidil or its
structural analogs as indicated. The enzyme activity in extracts
of treated cells was measured by a tritium-release assay and is
expressed as a percentage of HCl-treated control.

As for `Nc1cc(N2CCCCC2)nc(N)[n+]1[O-]` [Minoxidil], the “10^-6 × No. of Cells/Dish” value in series [1] is on record as 0.49 10^-6 × No. of Cells/Dish. In addition, the Hyp/Pro was 0.92 ± .01 in series [2] (1 mM, gel electrophoresis (Table V)); 0.92 ± 0.01 in series [2] (1 mM, type I procollagen chains isolated by gel electrophoresis, mean ± range of two experiments (description table)); 0.91 ± .03 in series [2] (0.3 M, type I procollagen chains isolated by gel electrophoresis, mean ± range (Table IV)). Also, the activity at 1000 µM in series [2] (Homo sapiens, Skin fibroblast, 1 mM, 72 hr (Table V), read-out: ratio of hydroxyproline to proline, % control value) came to 100%. Also, the “ratio of hydroxyproline to proline (in words)” value in series [2] (Table IV text) is “remained unaltered”. Besides, the “inhibition of serum-induced proliferation of fibroblasts in culture (in words)” value in the series on human skin fibroblasts is given as “capable of inhibiting the serum-induced proliferation of fibroblasts in culture”. In addition, in the series on lysyl hydroxylase (1 mM, 72 hr), the “decrease of the activity of lysyl hydroxylase” value worked out at 73%. Moreover, the “Lysyl hydroxylase activity (%)” value with lysyl hydroxylase (1 mM, 72 hr, % of HCl-treated control (Table III)) came out at 27%. Moreover, the IC50 with lysyl hydroxylase (72 hr (FIG. 4, FIG. 5), read-out: concentration giving 50% inhibition (lysyl hydroxylase)) is 200 µM.

Source of the values: US5328913A, “Minoxidil analogs as inhibitors of cell proliferation and lysyl hydroxylase” (priority 1992, dated 1994).
